Assay results as given in patent US10577362B2, “Substituted 2, 4-diamino-quinoline derivatives for use in the treatment of proliferative diseases” (GENOSCIENCE PHARMA, priority 2016, dated 2020).
Where a name gives a salt, the structure may show the parent alone.

How the values were obtained:
Type in all cases: cell-based, human
[1] = tested on: MOLM-14 (acute myeloid leukemia) cell line; test: CellTiter-Glo luminescent cell viability assay, MOLM-14; details: Homo sapiens; for viability at 4 µM: MOLM-14, compound at 4 μM; for viability at 4 µM / viability at 10 µM: 72 h; for viability at 10 µM: MOLM-14, compound at 10 μM; for EC50: MOLM-14 cell line, 72 h incubation, CellTiter-Glo, read-out: EC50, growth inhibition of MOLM-14
Description: (§1) All cell lines were maintained in medium containing 1% penicillin-streptomycin (Dutscher, P06-07100) and 10% Fetal Bovine Serum (Hyclone Dutscher, RZK35922) cultured at 37° C. with 5% CO2. HepG2 (hepatocellular carcinoma), cell line was cultured in Dulbecco's modified Eagle's medium low glucose (Gibco, 21885025), Huh7 (hepatocellular carcinoma), HCT-116 (colorectal carcinoma), PANC-1 (prancreatic carcinoma) and A375 (malignant melanoma) cell lines were cultured in Dulbecco's modified Eagle's medium (Dutscher, L0103). MOLM-14 (acute myeloid leukemia) cell line was maintained in MEM alpha medium (Gibco, 22561-021). 786-0 (renal adenocarcinoma) cell lines were maintained in RPMI 1640 medium (Dutscher, L0498).
(§2) Cell viability was measured using the CellTiter-Glo® luminescent cell viability assay as described by the manufacturer (Promega, Ref G7571) using an Infinite F200Pro luminometer (Tecan). Briefly, for adherent cells, cells were plated onto 96-well plates (white with clear bottom) in 90 μL of media per well and were allowed to grow overnight before the assay. For cells growing in suspension, cells were plated onto 96-well plates 1 h before the assay.
(§3) Compounds were resuspended in H2O or DMSO and added at different concentrations to each well, and cell cultures were incubated for 72 h. Each diluent (H2O or DMSO) were used as a control, and all compounds were tested in a constant percentage of H2O or DMSO. On the day of the reading, plates are equilibrated 30 min at room temperature before the addition of 100 μL of CellTiter-Glo® and luminescence was measured using an Infinite F200Pro (Tecan). % cell viability were expressed as a percentage of the signal obtained for cell cultures treated with diluent. EC50 values were determined as the dose of compound required to reduce luminescent values to 50% of the signal obtained for cell cultures treated with diluent. The experimental data were analyzed using a computer program, Graphpad Prism v5 (GraphPad Software, Inc. La Jolla, Calif.). All points were at least done in duplicate.

[2] = tested on: A375 (malignant melanoma) cell line; test: CellTiter-Glo luminescent cell viability assay, A375; details: Homo sapiens, A-375; for viability at 4 µM: A375, compound at 4 μM; for viability at 4 µM / viability at 10 µM: 72 h; for viability at 10 µM: A375, compound at 10 μM; for EC50: A375 cell line, 72 h incubation, CellTiter-Glo, read-out: EC50, growth inhibition of A375
Description: as §1, §2, §3

[3] = tested on: HCT-116 (colorectal carcinoma) cell line; test: CellTiter-Glo luminescent cell viability assay, HCT-116; details: Homo sapiens; for viability at 4 µM: HCT-116, compound at 4 μM; for viability at 4 µM / viability at 10 µM: 72 h; for viability at 10 µM: HCT-116, compound at 10 μM; for EC50: HCT-116 cell line, 72 h incubation, CellTiter-Glo, read-out: EC50, growth inhibition of HCT-116
Description: as §1, §2, §3

[4] = tested on: Huh7 (hepatocellular carcinoma) cell line; test: CellTiter-Glo luminescent cell viability assay, Huh7; details: Homo sapiens, Huh-7; for viability at 4 µM: Huh7, compound at 4 μM; for viability at 4 µM / viability at 10 µM: 72 h; for viability at 10 µM: Huh7, compound at 10 μM; for EC50: Huh7 cell line, 72 h incubation, CellTiter-Glo, read-out: EC50, growth inhibition of Huh7
Description: as §1, §2, §3

[5] = tested on: 786-O (renal adenocarcinoma) cell line; test: CellTiter-Glo luminescent cell viability assay, 786-O; details: Homo sapiens, 786-0; for viability at 4 µM / viability at 10 µM: 786-O, 72 h; for viability at 4 µM: compound at 4 μM; for viability at 10 µM: compound at 10 μM; for EC50: 786-O cell line, 72 h incubation, CellTiter-Glo, read-out: EC50, growth inhibition of 786-O
Description: as §1, §2, §3

[6] = tested on: HepG2 (hepatocellular carcinoma) cell line; test: CellTiter-Glo luminescent cell viability assay, HepG2; details: Homo sapiens; for viability at 4 µM / viability at 10 µM: HepG2, HepG, 72 h; for viability at 4 µM: compound at 4 μM; for viability at 10 µM: compound at 10 μM; for EC50: HepG2 cell line, 72 h incubation, CellTiter-Glo, read-out: EC50, growth inhibition of HepG2
Description: as §1, §2, §3

SMILES	viability at 4 µM [1] [%]	viability at 10 µM [1] [%]	viability at 4 µM [2] [%]	viability at 10 µM [2] [%]	viability at 4 µM [3] [%]	viability at 10 µM [3] [%]	viability at 4 µM [4] [%]	viability at 10 µM [4] [%]	viability at 4 µM [5] [%]	viability at 10 µM [5] [%]	viability at 4 µM [6] [%]	viability at 10 µM [6] [%]	EC50 [1] [µM]	EC50 [2] [µM]	EC50 [3] [µM]	EC50 [4] [µM]	EC50 [5] [µM]	EC50 [6] [µM]
Cc1cc(Nc2nc3ccccc3c(N3CCC(NC(C)(C)C)CC3)c2C#N)ccc1Nc1ccnc(-c2cccnc2)n1 [Compound 522CN, 2-{3-methyl-4-[2-(pyridin-3-yl)pyrimidin-4-ylamino]phenylamino}-3-cyano-4-(4-tert-butylaminopiperidin-1-yl)quinoline]	0.3	0.3	0.3	0.3	0.3	0.2	0.4	0.4	0.2	0.2	0.3	0.2						
CC(C)(C)NC1CCN(c2c(C#N)c(NCc3ccc(Cl)cc3)nc3ccccc23)CC1 [Compound 352CN, 2-(4-chlorobenzylamino)-3-cyano-4-[4-(tert-butylamino)piperidin-1-yl]quinoline]	76.9	0.6	29.1	0.5	43.9	0.5	73.2	0.6	52.4	0.5	71.2	0.6						
N#Cc1c(NCc2ccc(Cl)cc2)nc2ccccc2c1N1CCC(Oc2ccc(Cl)cc2)C1 (centres unmarked) [Compound 3336CN, 2-(4-chlorobenzylamino)-3-cyano-4-[3-(4-chlorophenoxy)pyrrolidin1--yl]quinoline]	98.8	89.8	106	107	99	92	95.6	93.8	82.8	79.8	75.4	74.5						
COc1ccc(OC2CCN(c3c(C#N)c(NCc4ccc(Cl)cc4)nc4ccccc34)CC2)cc1 [Compound 3224CN, 2-(4-chlorobenzylamino)-3-cyano-4-[4-(4-methoxyphenoxy)piperidin-1-yl]quinoline]	112	94.6	96	91.7	89.8	65.1	116	90	96.3	88.9	91.6	70						
Clc1ccc(CNc2cc(N3CC(N4CCCC4)C3)c3ccccc3n2)cc1 [Compound 116, 2-(4-chlorobenzylamino)-4-[3-(pyrrolidin-1-yl)azetidin-1-yl]quinoline hydrochloride]													0.5 to 5	0.5 to 5	0.5 to 5	0.5 to 5	0.5 to 5	0.5 to 5
Cc1ccc(OC2CCCN(c3c(C#N)c(NCc4ccc(Cl)cc4)nc4ccccc34)C2)cc1 (centres unmarked) [Compound 3234CN, 2-(4-chlorobenzylamino)-3-cyano-4-[3-(4-methylphenoxy)piperidin-1-yl]quinoline]	94.4	92	107	102	93.8	90.7	99.2	95.5	89.8	80.5	89.8							
CC(C)(C)NC1CCN(c2c(F)c(NCc3ccc(Cl)cc3)nc3ccccc23)CC1 [Compound 348, 2-(4-chlorobenzylamino)-3-fluoro-4-[4-(tert-butylamino)piperidin-1-yl]quinoline Hydrochloride Salt]													0.5 to 5	0.5 to 5	0.5 to 5	5 to 10	0.5 to 5	0.5 to 5
